Consider 2 compounds from patent US20210077570A1, “COMPOSITION COMPRISING A POLYMYXIN AND TEICOPLANIN” (GALENUS G.H. AG, priority 2018, published 2021).

For data set [1], the system named is stationary bacteria from biofilm. In words: Elimination of stationary bacteria from biofilm (catheter piece in CAMHB). It is filed as cell-based. The note with it: for Elimination of bacteria from biofilm: conclusion, TEC alone in case a Gram-positive strain is tested; for Colony counts, incubated with as compared without a catheter piece / Increase (at least two dilution steps) of MIC, incubated with as compared without a catheter piece: tubes showing no gross turbidity; for Colony counts, incubated with as compared without a catheter piece: after centrifugation, any of the strains tested, TEC mono in case a Gram-positive strain is tested; for Increase (at least two dilution steps) of MIC, incubated with as compared without a catheter piece: MIC of CS, or of TEC in case a Gram-positive strain is tested. The protocol:
To test the elimination of stationary bacteria from biofilm in vitro in CAMHB comparing combination versus monotherapy the same teicoplanin and colistin (serum) concentrations derived from pharmacokinetic studies are used as above.
Each of the total 16 sets as above is performed in duplicates. Each tube is filled with 5 ml CAMHB and in one of each duplicates a 2 cm long piece of a plastic catheter is inserted. Then all tubes are inoculated with the test strain and incubated aerobically at ambient air at 37° C. overnight (16-24 h). The tubes are removed from the incubator and the appropriate blank, mono or combination drug concentrations to be tested are added to each tube and the tubes are incubated aerobically at ambient air at 37° C. for an additional 24 h. The tubes are removed from the incubator and vortexed for about 10 min. Thereafter the catheter pieces from the corresponding one of the duplicates are removed.
From tubes showing growth with turbidity the MIC of CS or TEC in case of testing Gram-positive bacteria for the test strains is determined as above and compared to the original MIC. All tubes showing growth or no growth according to turbidity are centrifuged for 10 min at 3000 rpm and about 100 μL of the sediment is transferred onto IsoSensitest agar plate supplemented with 5% blood (Oxoid) and containing concentrations of CS of 4 mg/L, 8 mg/L, 16 mg/L, and 32 mg/L—or TEC of 4 mg/L, 8 mg/L, 16 mg/L in case a Gram-positive strain is tested. After overnight incubation the number of CFUs growing on the plates containing different CS concentrations—or TEC concentrations in case a Gram-positive strain is tested—are counted.

Data set [2] has as its system non-multiplying stationary phase bacteria. In words: Elimination of dormant (resistant) bacteria, long term non-multiplying stationary phase model. It is filed as cell-based. The following applies: nutrient depleted 5-6 day stationary phase cell suspension in PBS. The protocol:
In order to test the elimination of dormant (resistant) bacteria the long term non-multiplying stationary phase model is used (Hu et al 2010 [18]). Long-term stationary phase cultures of 5 to 6 days are chosen with the test strains as described above. These late stationary phase cultures, may represent a mixed population with a dynamic balance of cell division and cell death. In order to induce the bacterial cells into a non-replicating stage, the cells are washed and incubated with PBS. […] The nutrient depleted 5-6 day stationary phase cell suspension now called non-multiplying stationary phase bacteria is used to test TEC and CS as mono substances or in combinations with the concentrations as mentioned above.

For data set [3] the following is noted: cited from earlier work.

Positions of bridges follow the written chain, without caps; N, C: chain ends. Non-standard residues stand in square brackets, D forms with d. Residues, ends and D or L forms follow the SMILES beside them. *: point of attachment. Heptanoyl(5-Me) = CCC(C)CCCC(=O)*; Dab = NCC[C@H](N)C(=O)O

On to `CCC(C)CCCC(=O)N[C@@H](CCN)C(=O)N[C@H](C(=O)N[C@@H](CCN)C(=O)N[C@H]1CCNC(=O)[C@H]([C@@H](C)O)NC(=O)[C@H](CCN)NC(=O)[C@H](CCN)NC(=O)[C@H](CC(C)C)NC(=O)[C@@H](CC(C)C)NC(=O)[C@H](CCN)NC1=O)[C@@H](C)O` (stereo partly drawn) [CS, colistin sulphate] ({Heptanoyl(5-Me)}-[Dab]T[Dab][Dab][Dab][dL]L[Dab][Dab]T; lactam 4-C), for which, in data set [1], the “Elimination of bacteria from biofilm” value is on record as “not so well the case”; the “Colony counts, incubated with as compared without a catheter piece” value was “higher colony counts”; the “Increase (at least two dilution steps) of MIC, incubated with as compared without a catheter piece” value is “about one third”. Besides, the “Elimination of non-multiplying stationary phase bacteria” value in data set [2] is recorded as “not as mono substances”.
Regarding teicoplanin [TP], in data set [1], the “Elimination of bacteria from biofilm” value is “not so well the case”; the “Colony counts, incubated with as compared without a catheter piece” value is on record as “higher colony counts”; the “Increase (at least two dilution steps) of MIC, incubated with as compared without a catheter piece” value is given as “about one third”. In addition, the “Elimination of non-multiplying stationary phase bacteria” value in data set [2] is given as “not as mono substances”. For the same compound, the “terminal half-life, median (range)” value in data set [3] (Antony et al 1991) is on record as 168 (111-278) h. Besides, the “terminal half-life, mean (±SD)” value in data set [3] (Outman et al 1990) is recorded as 157 (±93) h.
